Assay results as given in patent publication US12117387B2, “Biosensor, method for manufacturing the same, and analysis method using the same” (AJOU UNIVERSITY INDUSTRY-ACADEMIC COOPERATION FOUNDATION, priority 2020, dated 2024).

System: RAW264.7 cell line
Test: Boyden chamber (transwell) macrophage migration versus chemoattractant concentration, retroreflection-based cytometry
Format: cell-based, rat
Conditions: 24 hours migration
Procedure: Experimental Example 3 was conducted to verify that the RAW264.7 cell line cultured in the transwell (the first chamber) coated with the retroreflective particles migrated under influence of monocytechemoattractant protein-1 (MCP-1) as the chemoattractant present in the lower chamber (second chamber), and migrated to the bottom substate of the well plate (the second chamber). In this example, DMEM (Dulbeccos Modified Eagles Medium) was used as the serum-free culture medium in the upper chamber. The culture medium in the lower chamber was composed of 1 ng/ml MCP-1, 10% Fetal Bovine Serum (FBS), and 1% Penicillin streptomycin (PS) based on DMEM (Dulbeccos Modified Eagles Medium). After the first chamber and the second chamber were combined with each other, the cell migration time was specified for 24 hours to observe the cell migration, and the cell migration was observed while culturing the cells in a cell incubator.
In Experimental Example 4, an experiment was conducted to verify whether the novel developed retroreflection-based cytometry can be used for an evaluation of cell migration dependence on the concentration of the chemoattractant as used in general cell migration analysis. The MCP-1 introduced into the well plate (the second chamber) was added into the culture medium at a concentration of each of 0, 1, 10, and 100 ng/ml. […]

## monocytechemoattractant protein-1 [MCP-1]
100 ng/ml MCP-1 compared to each of 1 and 10 ng/ml
  number of migrated cells: reduced
MCP-1 concentration increased from 0 to 10 ng/ml
  number of migrated cells: increased
